This assay addresses T1, GCase (Homo sapiens, UniProt P04062).
T1 construct: endogenous in cells; host or cells: HeLa cells
T1 sequence (P04062 40-536): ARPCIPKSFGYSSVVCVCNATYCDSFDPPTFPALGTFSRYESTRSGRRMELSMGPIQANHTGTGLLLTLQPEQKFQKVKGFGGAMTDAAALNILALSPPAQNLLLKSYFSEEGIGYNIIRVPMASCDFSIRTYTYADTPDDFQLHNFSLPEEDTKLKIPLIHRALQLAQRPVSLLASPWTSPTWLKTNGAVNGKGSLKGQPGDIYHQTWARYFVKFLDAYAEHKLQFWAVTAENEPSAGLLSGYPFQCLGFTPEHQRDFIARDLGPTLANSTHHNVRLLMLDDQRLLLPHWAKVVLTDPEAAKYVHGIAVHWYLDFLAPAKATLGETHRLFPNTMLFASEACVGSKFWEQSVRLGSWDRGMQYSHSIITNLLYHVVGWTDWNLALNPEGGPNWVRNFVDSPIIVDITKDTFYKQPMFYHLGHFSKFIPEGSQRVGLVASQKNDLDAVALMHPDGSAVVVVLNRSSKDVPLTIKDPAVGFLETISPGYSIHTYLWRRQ
The assay is described as follows: activation of GCase in a live cell PFB assay in HELA cells. The class given is cell-based.

The values below come from patent US20240262832A1, “SMALL MOLECULE MODULATORS OF GLUCOCEREBROSIDASE ACTIVITY AND USES THEREOF” (Vanqua Bio, Inc., priority 2021, published 2024).

`FC(F)(F)c1cccc(OC[C@@H]2[C@H]3CN(c4cncc(-c5nncs5)n4)C[C@@H]23)n1` [Compound 60, (1R,5S,6S)-3-[6-(1,3,4-thiadiazol-2-yl)pyrazin-2-yl]-6-({[6-(trifluoromethyl)pyridin-2-yl]oxy}methyl)-3-azabicyclo[3.1.0]hexane]: the EC50 (commonly the concentration at which the effect is half-maximal) is below 10 µM.

On to `O=C(c1nnc(C(F)(F)c2ccccc2)o1)N1CCCC(COc2ccccc2)C1` (centres unmarked) [Compound 51, (5-(Difluoro(phenyl)methyl)-1,3,4-oxadiazol-2-yl)(3-(phenoxymethyl)piperidin-1-yl)methanone], for which the EC50 is above 100 µM.

On to `COc1cc(C(=O)N2CCCC(COc3ccccc3)C2)c(Cl)cc1Cl` (centres unmarked) [Compound 155], for which the half-maximal effective concentration (EC50) is 10 to 50 µM.

Compound `O=C(N1CCCC(COc2ccccc2)C1)C1(c2cnc(-c3ccccc3)s2)CCOCC1` (centres unmarked) [Compound 279, (3-(Phenoxymethyl)piperidin-1-yl)(4-(2-phenylthiazol-5-yl)tetrahydro-2H-pyran-4-yl)methanone] gave an EC50 below 10 µM.

Compound `c1ccc(OCC2CCN(c3cnc4ccccc4n3)CC2)cc1` [Compound 418, 2-[4-(Phenoxymethyl)piperidin-1-yl]quinoxaline] returned a concentration giving a half-maximal response (EC50) of 10 to 50 µM.

In turn, `COc1cccn(CC(=O)N2CCC(OCc3ccccc3)CC2)c1=O` [Compound 447] yielded a concentration for a half-maximal effect (EC50) above 100 µM.

In turn, `COc1ccc(OCC2CCN(c3cncc(C(=O)N4CCCC4)n3)CC2)cc1` [Compound 437] displayed an EC50 of 10 to 50 µM.

Regarding `Cn1c(-c2ccccc2)cc2ncc(C(=O)N3CCCC(COc4cccnc4C(F)(F)F)C3)nc21` (centres unmarked) [Compound 50, (5-Methyl-6-phenyl-5H-pyrrolo[2,3-b]pyrazin-3-yl)(3-(((2-(trifluoromethyl)pyridin-3-yl)oxy)methyl)piperidin-1-yl)methanone], the EC50 fell in the range of 10 to 50 µM.

The compound `CCCc1[nH]ncc1C(=O)N1CCC(OCc2ccccc2)CC1` [Compound 465] showed an EC50 of 50 to 100 µM.

`O=C(CCc1cccc(C(F)(F)F)c1)N1CCCC(COc2ccccc2)C1` (centres unmarked) [Compound 150] returned an EC50 of 10 to 50 µM.

As to `COc1ccc(OCC2CCN(Cc3ncc[nH]3)CC2)cc1` [Compound 450], the EC50 is 10 to 50 µM.

With `Fc1nccc(OC[C@@H]2[C@H]3CN(c4cnc5cnn(C6COC6)c5n4)C[C@@H]23)c1F` [Compound 228], the concentration for a half-maximal effect (EC50) was 10 to 50 µM.

`FC(F)(F)c1ncccc1OC[C@@H]1[C@H]2CN(c3cnc4cnn(C5COC5)c4n3)C[C@@H]12` [Compound 98, 1-(Oxetan-3-yl)-6-((1R,5S,6r)-6-(((2-(trifluoromethyl)pyridin-3-yl)oxy)methyl)-3-azabicyclo[3.1.0]hexan-3-yl)-1H-pyrazolo[3,4-b]pyrazine] gave an EC50 above 100 µM.

`FC(F)Cn1ncc2ncc(N3CCC(OC4CN(c5cccnc5C(F)(F)F)C4)CC3)nc21` [Compound 329, 1-(2,2-Difluoroethyl)-6-(4-((1-(2-(trifluoromethyl)pyridin-3-yl)azetidin-3-yl)oxy)piperidin-1-yl)-1H-pyrazolo[3,4-b]pyrazine] yielded a concentration for a half-maximal effect (EC50) below 10 µM.

The compound `FC(F)Cn1ncc2ncc(N3C[C@H](COc4cccnc4C(F)(F)F)C[C@H](OC(F)F)C3)nc21` [Compound 299a, 1-(2,2-Difluoroethyl)-6-((3S,5R)-3-(difluoromethoxy)-5-(((2-(trifluoromethyl)pyridin-3-yl)oxy)methyl)piperidin-1-yl)-1H-pyrazolo[3,4-b]pyrazine] yielded an EC50 of 10 to 50 µM.

Compound `O=C(c1ccn2c1CSCC2)N1CCCC(COc2ccccc2)C1` (centres unmarked) [Compound 220] gave a half-maximal effective concentration (EC50) of 50 to 100 µM.

The compound `O=C(N1CCC(Oc2ccc(C(F)(F)F)cn2)CC1)C1(c2ccccc2)CCOCC1` [Compound 381] returned an EC50 of 10 to 50 µM.

In the case of `O=C(c1ccc2cc[nH]c2c1)N1CCC(Oc2cccc(C(F)(F)F)n2)CC1` [Compound 327, (1H-Indol-6-yl)(4-((6-(trifluoromethyl)pyridin-2-yl)oxy)piperidin-1-yl)methanone], the EC50 fell in the range of 10 to 50 µM.

For `COc1ccc(OCC2CCN(C(=O)c3cc(C(C)C)nc(N)n3)CC2)cc1` [Compound 461], the EC50 fell in the range of 10 to 50 µM.

Turning to `O=C(c1ccc2cc[nH]c2c1)N1CCC(Oc2cc(C(F)(F)F)ccn2)CC1` [Compound 322, (1H-Indol-6-yl)(4-((4-(trifluoromethyl)pyridin-2-yl)oxy)piperidin-1-yl)methanone], the EC50 is 50 to 100 µM.

For `FC(F)Cn1ncc2ncc(N3C[C@@H]4[C@@H](COc5ncccc5C(F)(F)F)[C@@H]4C3)nc21` [Compound 89, (1R,5S,6S)-3-[1-(2,2-difluoroethyl)-1H-pyrazolo[3,4-b]pyrazin-6-yl]-6-({[3-(trifluoromethyl)pyridin-2-yl]oxy}methyl)-3-azabicyclo[3.1.0]hexane], the concentration for a half-maximal effect (EC50) fell in the range of 10 to 50 µM.

`Cc1cnc2c(n1)c(C(=O)N1CCCC(COc3ccccc3C)C1)c(-c1ccccc1)n2C` (centres unmarked) [Compound 263, (2,5-dimethyl-6-phenyl-5H-pyrrolo[2,3-b]pyrazin-7-yl)(3-((o-tolyloxy)methyl)piperidin-1-yl)methanone] came in with a half-maximal effective concentration (EC50) of 10 to 50 µM.

For `C[C@@H]1C[C@H](COc2cccnc2C(F)(F)F)CN(c2cnc3cnn(CC(F)F)c3n2)C1` [Compound 47a, 1-(2,2-Difluoroethyl)-6-((3R,5S)-3-methyl-5-(((2-(trifluoromethyl)pyridin-3-yl)oxy)methyl)piperidin-1-yl)-1H-pyrazolo[3,4-b]pyrazine], the EC50 is below 10 µM.

Compound `COc1ccc(C(F)(F)C(=O)N2CCCC(COc3ccccc3)C2)cc1` (centres unmarked) [Compound 152] had a 50% effective concentration (EC50) of 10 to 50 µM.

As for `O=C(Cc1csc(-c2ccccc2)n1)N1CCC(Oc2ncccc2C(F)(F)F)CC1` [Compound 401, 2-(2-Phenyl-1,3-thiazol-4-yl)-1-(4-{[3-(trifluoromethyl)pyridin-2-yl]oxy}piperidin-1-yl)ethan-1-one], the 50% effective concentration (EC50) fell in the range of 10 to 50 µM.

`FC(F)Cn1ncc2ncc(N3CCCC(COc4cccnc4Cl)C3)nc21` (centres unmarked) [Compound 59, 2-Chloro-3-({1-[1-(2,2-difluoroethyl)pyrazolo[3,4-b]pyrazin-6-yl]piperidin-3-yl}methoxy) pyridine] returned an EC50 below 10 µM.

Regarding `CC(C)c1cc(C(=O)N2C[C@@H](C)C[C@H](COc3cccnc3C(F)(F)F)C2)[nH]n1` [Compound 234b, (3-Isopropyl-1H-pyrazol-5-yl)((3S,5S)-3-methyl-5-(((2-(trifluoromethyl)pyridin-3-yl)oxy)methyl)piperidin-1-yl)methanone], the 50% effective concentration (EC50) lay in the range of 10 to 50 µM.

Consider `Cc1ccccc1OCC1CCCN(C(=O)c2cnc3cc(-c4ccccc4)n(C)c3n2)C1` (centres unmarked) [Compound 49, (5-methyl-6-phenyl-5H-pyrrolo[2,3-b]pyrazin-3-yl)(3-((o-tolyloxy)methyl)piperidin-1-yl)methanone], for which the EC50 fell in the range of 10 to 50 µM.

In turn, `COc1ccc(OCC2CCN(C(=O)CC3CCOC3)CC2)cc1` (centres unmarked) [Compound 472] yielded a half-maximal effective concentration (EC50) of 50 to 100 µM.

In turn, `COc1ccc(OCC2CCN(Cc3ccc(CO)o3)CC2)cc1` [Compound 448] displayed an EC50 of 10 to 50 µM.

For `Cc1cnccc1-c1ccc(C(=O)N2CCCC(COc3ccccc3)C2)s1` (centres unmarked) [Compound 142], the half-maximal effective concentration (EC50) is below 10 µM.

`FC(F)Cn1ncc2ncc(N3C[C@@H]4[C@@H](COc5cncc(C(F)(F)F)c5)[C@@H]4C3)nc21` [Compound 62, (1R,5S,6S)-3-[1-(2,2-difluoroethyl)-1H-pyrazolo[3,4-b]pyrazin-6-yl]-6-({[5-(trifluoromethyl)pyridin-3-yl]oxy}methyl)-3-azabicyclo[3.1.0]hexane] showed a concentration for a half-maximal effect (EC50) of 10 to 50 µM.
